From the NIST ThermoML archive (doi:10.1016/j.fluid.2009.11.030)
± gives the expanded uncertainty stated by the source.

Assay: excess molar enthalpy (molar enthalpy of mixing); xn = mol fraction of the nth substance listed
Details: 101.3 kPa, Liquid, Isothermal microcalorimeter

CCOC(=O)CC(=O)OCC [diethyl 1,3-propanedioate] + CCOC(C)=O
excess molar enthalpy [kcal/mol]
Details | 288.19 K | 298.15 K | 313.15 K | 328.15 K | 338.15 K | 348.15 K
x1 = 0.0504 | -0.000239 ± 0.000239 | -0.000478 ± 0.000239 | -0.000956 ± 0.000239 | -0.00143 ± 0.000239 | -0.00167 ± 0.000239 | -0.00239 ± 0.000239
x1 = 0.1008 | -0.000239 ± 0.000239 | -0.000717 ± 0.000239 | -0.00143 ± 0.000239 | -0.00239 ± 0.000239 | -0.00335 ± 0.000239 | -0.00406 ± 0.000239
x1 = 0.148 | -0.000478 ± 0.000239 | -0.000956 ± 0.000239 | -0.00191 ± 0.000239 | -0.00335 ± 0.000239 | -0.0043 ± 0.000239 | -0.0055 ± 0.000239
x1 = 0.2007 | -0.000478 ± 0.000239 | -0.0012 ± 0.000239 | -0.00239 ± 0.000239 | -0.00406 ± 0.000239 | -0.00526 ± 0.000239 | -0.00645 ± 0.000239
x1 = 0.2496 | -0.000478 ± 0.000239 | -0.00143 ± 0.000239 | -0.00263 ± 0.000239 | -0.00454 ± 0.000239 | -0.00598 ± 0.000239 | -0.00741 ± 0.000239
x1 = 0.2974 | -0.000478 ± 0.000239 | -0.00143 ± 0.000239 | -0.00287 ± 0.000239 | -0.00478 ± 0.000239 | -0.00621 ± 0.000239 | -0.00789 ± 0.000239
x1 = 0.3475 | -0.000478 ± 0.000239 | -0.00143 ± 0.000239 | -0.00287 ± 0.000239 | -0.00502 ± 0.000239 | -0.00669 ± 0.000239 | -0.00813 ± 0.000239
x1 = 0.4 | -0.000478 ± 0.000239 | -0.00143 ± 0.000239 | -0.00287 ± 0.000239 | -0.00502 ± 0.000239 | -0.00669 ± 0.000239 | -0.00837 ± 0.000239
x1 = 0.447 | -0.000478 ± 0.000239 | -0.00143 ± 0.000239 | -0.00287 ± 0.000239 | -0.00502 ± 0.000239 | -0.00669 ± 0.000239 | -0.00813 ± 0.000239
x1 = 0.5003 | -0.000478 ± 0.000239 | -0.0012 ± 0.000239 | -0.00287 ± 0.000239 | -0.00478 ± 0.000239 | -0.00645 ± 0.000239 | -0.00789 ± 0.000239
x1 = 0.5474 | -0.000478 ± 0.000239 | -0.0012 ± 0.000239 | -0.00263 ± 0.000239 | -0.00454 ± 0.000239 | -0.00621 ± 0.000239 | -0.00765 ± 0.000239
x1 = 0.601 | -0.000239 ± 0.000239 | -0.000956 ± 0.000239 | -0.00239 ± 0.000239 | -0.0043 ± 0.000239 | -0.00574 ± 0.000239 | -0.00717 ± 0.000239
x1 = 0.6476 | -0.000239 ± 0.000239 | -0.000956 ± 0.000239 | -0.00215 ± 0.000239 | -0.00406 ± 0.000239 | -0.00526 ± 0.000239 | -0.00645 ± 0.000239
x1 = 0.7009 | -0.000239 ± 0.000239 | -0.000717 ± 0.000239 | -0.00191 ± 0.000239 | -0.00359 ± 0.000239 | -0.00454 ± 0.000239 | -0.00574 ± 0.000239
x1 = 0.7514 | 0 ± 0.000239 | -0.000717 ± 0.000239 | -0.00167 ± 0.000239 | -0.00311 ± 0.000239 | -0.00406 ± 0.000239 | -0.00502 ± 0.000239
x1 = 0.7986 | 0 ± 0.000239 | -0.000478 ± 0.000239 | -0.00143 ± 0.000239 | -0.00239 ± 0.000239 | -0.00335 ± 0.000239 | -0.00406 ± 0.000239
x1 = 0.8476 | 0 ± 0.000239 | -0.000239 ± 0.000239 | -0.000956 ± 0.000239 | -0.00191 ± 0.000239 | -0.00239 ± 0.000239 | -0.00311 ± 0.000239
x1 = 0.8985 | 0 ± 0.000239 | 0 ± 0.000239 | -0.000717 ± 0.000239 | -0.00143 ± 0.000239 | -0.00167 ± 0.000239 | -0.00215 ± 0.000239
x1 = 0.9513 | 0.000239 ± 0.000239 | 0.000239 ± 0.000239 | -0.000239 ± 0.000239 | -0.000717 ± 0.000239 | -0.000717 ± 0.000239 | -0.000956 ± 0.000239
